According to patent US8716324B2, “Tricyclic indeno-pyrrole derivatives as serotonin receptor modulators” (Athersys, Inc., priority 2004, dated 2014):

What follows are compounds tested against human 5HT2c receptor (VSV Isoform) (Homo sapiens, UniProt P28335, I156V/I160V/N158S) (assay: cell-based). Settings: 5-HT2c EC50 (hVSV, μM).
human 5HT2c receptor (VSV Isoform), sequence (P28335 33-458 I156V/N158S/I160V limits assumed): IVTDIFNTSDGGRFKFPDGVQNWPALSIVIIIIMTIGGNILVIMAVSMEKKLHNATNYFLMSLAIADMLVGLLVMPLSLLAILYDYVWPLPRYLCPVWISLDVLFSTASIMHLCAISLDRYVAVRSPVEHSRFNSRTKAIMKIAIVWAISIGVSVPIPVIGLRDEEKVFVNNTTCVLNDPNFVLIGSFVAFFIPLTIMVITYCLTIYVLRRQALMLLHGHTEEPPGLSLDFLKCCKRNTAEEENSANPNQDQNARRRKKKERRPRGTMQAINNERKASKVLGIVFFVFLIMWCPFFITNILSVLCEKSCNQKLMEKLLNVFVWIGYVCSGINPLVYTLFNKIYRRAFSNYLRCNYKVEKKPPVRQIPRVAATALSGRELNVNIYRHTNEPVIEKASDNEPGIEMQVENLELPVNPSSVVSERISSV
With Cc1cc2c(cc1Cl)C(C)C1CNCC21 (single isomer, unassigned) [21, Enantiomer 1] the EC50 was less than 1 µM. Compound CC1c2cc(Cl)c(OCc3cccc(F)c3)cc2C2CNCC12 (stereo not shown) [Example 9, 5-(3-Fluorobenzyloxy)-6-chloro-8-methyl-1,2,3,3a,8,8a-hexahydroindeno[1,2-c]pyrrole] has an EC50 of less than 10 µM. Compound COc1cc2c(cc1OC)C1CNCC1C2C (single isomer, unassigned) [36, Enantiomer 1] has an EC50 greater than 10 µM. Compound CC1c2ccc(OCc3ccc(F)cc3)cc2C2CNCC12 (single isomer, unassigned) [46, Enantiomer 2] has an EC50 of less than 10 µM. With COc1ccc2c(c1OC)C1CNCC1C2C (single isomer, unassigned) [34, Enantiomer 1] the EC50 was less than 1 µM. With CC1c2cc(Cl)c(OCC3CC3)cc2C2CNCC12 (stereo not shown) [Example 39, 5-Cyclopropylmethoxy-6-chloro-8-methyl-1,2,3,3a,8,8a-hexahydroindeno[1,2-c]pyrrole] the EC50 was less than 1 µM. COc1cc2c(cc1Cl)C(C)C1CNCC21 (stereo not shown) [Example 3, 5-Methoxy-6-chloro-8-methyl-1,2,3,3a,8,8a-hexahydroindeno[1,2-c]pyrrole] showed an EC50 of less than 0.1 µM. For COc1c(Cl)cc2c(c1Cl)C1CNCC1C2C (stereo not shown) [Example 38, 4,6-Dichloro-5-Methoxy-8-methyl-1,2,3,3a,8,8a-hexahydroindeno[1,2-c]pyrrole], the EC50 was less than 0.1 µM. Work on CC1c2cc(Cl)c(O)cc2C2CNCC12 (stereo not shown) [Example 4, 5-Hydroxy-6-chloro-8-methyl-1,2,3,3a,8,8a-hexahydroindeno[1,2-c]pyrrole] yielded an EC50 of less than 1 µM. Work on Cc1cccc2c1C(C)C1CNCC21 (stereo not shown) [Example 16, 7-Methyl-8-methyl-1,2,3,3a,8,8a-hexahydroindeno[1,2-c]pyrrole] yielded an EC50 of less than 1 µM. Compound Cc1cc2c(cc1Cl)C1CNCC1C2C (single isomer, unassigned) [23, Enantiomer 1] has an EC50 of less than 1 µM. COc1cc2c(cc1Cl)C(=O)C1CNCC21 (stereo not shown) [Example 53, 5-Methoxy-6-chloro-2,3,3a,8a-tetrahydro-1H-2-aza-cyclopenta[a]inden-8-one] gave an EC50 of less than 1 µM. Work on COc1cc2c(cc1-c1cccs1)C(C)C1CNCC21 (single isomer, unassigned) [32, Enantiomer 2] yielded an EC50 greater than 10 µM. CC1c2cc(Cl)c(Cl)cc2C2CNCC12 (stereo not shown) [Example 26, 5,6-Dichloro-8-methyl-1,2,3,3a,8,8a-hexahydroindeno[1,2-c]pyrrole] was tested, and the EC50 was less than 0.1 µM. Compound CC1c2cccc(F)c2C2CNCC12 (stereo not shown) [Example 17, 4-Fluoro-8-methyl-1,2,3,3a,8,8a-hexahydroindeno[1,2-c]pyrrole] has an EC50 of less than 10 µM. With CC1c2ccc(O)cc2C2CNCC12 (stereo not shown) [Example 2, 5-Hydroxy-8-methyl-1,2,3,3a,8,8a-hexahydroindeno[1,2-c]pyrrole] the EC50 was less than 0.1 µM. Compound Cc1cc2c(cc1Br)C1CNCC1C2C (stereo not shown) [Example 24, 5-Bromo-6-methyl-8-methyl-1,2,3,3a,8,8a-hexahydroindeno[1,2-c]pyrrole] has an EC50 of less than 1 µM. For COc1ccc2c(c1Cl)C1CNCC1C2C (single isomer, unassigned) [25, Enantiomer 2], the EC50 was less than 1 µM. For CCC1c2ccc(OC)cc2C2CNCC12 (stereo not shown) [Example 48, 5-Methoxy-8-ethyl-1,2,3,3a,8,8a-hexahydroindeno[1,2-c]pyrrole], the EC50 was greater than 10 µM. Work on CC1c2c(ccc(Cl)c2Cl)C2CNCC12 (single isomer, unassigned) [27, Enantiomer 1] yielded an EC50 of less than 1 µM. CC1c2cc(Br)c(O)cc2C2CNCC12 (single isomer, unassigned) [31, Enantiomer 2] gave an EC50 of less than 0.1 µM. Compound CC1c2cc(Cl)c(OCc3ccccc3F)cc2C2CNCC12 (stereo not shown) [Example 8, 5-(2-Fluorobenzyloxy)-6-chloro-8-methyl-1,2,3,3a,8,8a-hexahydroindeno[1,2-c]pyrrole] has an EC50 of less than 10 µM. Clc1ccc2c(c1)CC1CNCC21 (stereo not shown) [Example 11, 6-Chloro-1,2,3,3a,8,8a-hexahydroindeno[1,2-c]pyrrole] was tested, and the EC50 was less than 0.1 µM. Fc1cccc(F)c1-c1ccc2c(c1)CC1CNCC21 (stereo not shown) [Example 12, 6-(2,6-Difluorophenyl)-1,2,3,3a,8,8a-hexahydroindeno[1,2-c]pyrrole] gave an EC50 greater than 10 µM. Work on Cc1cccc2c1C1CNCC1C2C (stereo not shown) [Example 14, 4-Methyl-8-methyl-1,2,3,3a,8,8a-hexahydroindeno[1,2-c]pyrrole] yielded an EC50 of less than 1 µM. In the case of COc1ccc2c(c1)C1CNCC1C2C (stereo not shown) [Example 1, 5-Methoxy-8-methyl-1,2,3,3a,8,8a-hexahydroindeno[1,2-c]pyrrole], the EC50 is reported as greater than 10 µM. CC1c2c(ccc(Cl)c2F)C2CNCC12 (single isomer, unassigned) [42, Enantiomer 1] showed an EC50 of less than 10 µM. Cc1cc2c(cc1Cl)C(C)C1CNCC21 (single isomer, unassigned) [21, Enantiomer 2] showed an EC50 of less than 0.1 µM. Work on CC1c2cc(F)ccc2C2CNCC12 (stereo not shown) [Example 19, 6-Fluoro-8-methyl-1,2,3,3a,8,8a-hexahydroindeno[1,2-c]pyrrole] yielded an EC50 of less than 1 µM. Compound CC1c2ccc(OCc3ccccc3F)cc2C2CNCC12 (single isomer, unassigned) [44, Enantiomer 2] has an EC50 of less than 10 µM. COc1c(Cl)cc2c(c1OC)C1CNCC1C2C (single isomer, unassigned) [35, Enantiomer 1] showed an EC50 of less than 0.1 µM. Work on CC1c2cc(Cl)c(OCc3ccc(F)cc3)cc2C2CNCC12 (single isomer, unassigned) [6, Enantiomer 2] yielded an EC50 of less than 1 µM. Work on CC1c2cc(Cl)c(O)cc2C2CNCC12 (single isomer, unassigned) [4, Enantiomer 2] yielded an EC50 of less than 0.1 µM. In the case of COc1cc2c(cc1Br)C(C)C1CNCC21 (single isomer, unassigned) [30, Enantiomer 2], the EC50 is reported as less than 0.01 µM. CC1c2ccc(O)cc2C2CNCC12 (single isomer, unassigned) [2, Enantiomer 2] gave an EC50 of less than 0.1 µM. Compound Cc1ccc2c(c1)C1CNCC1C2C (stereo not shown) [Example 13, 5-Methyl-8-methyl-1,2,3,3a,8,8a-hexahydroindeno[1,2-c]pyrrole] has an EC50 of less than 1 µM. Work on Cc1cc2c(cc1Cl)C1CNCC1C2C (single isomer, unassigned) [23, Enantiomer 2] yielded an EC50 of less than 0.1 µM. Work on CC1c2ccc(Cl)c(Cl)c2C2CNCC12 (single isomer, unassigned) [41, Enantiomer 2] yielded an EC50 of less than 10 µM. In the case of COc1ccc2c(c1Cl)C1CNCC1C2O (stereo not shown) [Example 54, 4-Chloro-5-methoxy-2,3,3a,8a-tetrahydro-1H-2-aza-cyclopenta[a]inden-8-ol], the EC50 is reported as less than 1 µM. With COc1cc2c(cc1C#N)C(C)C1CNCC21 (single isomer, unassigned) [33, Enantiomer 2] the EC50 was less than 1 µM. CC1c2ccc(OCc3ccccc3)cc2C2CNCC12 (single isomer, unassigned) [43, Enantiomer 2] showed an EC50 of less than 10 µM. COc1c(Cl)cc2c(c1Cl)C1CNCC1C2C (single isomer, unassigned) [38, Enantiomer 1] was tested, and the EC50 was less than 1 µM. For CC1c2cc(Cl)ccc2C2CNCC12 (single isomer, unassigned) [5, Enantiomer 1], the EC50 was less than 1 µM. In the case of CC1c2cc(Cl)c(OCc3ccc(F)cc3)cc2C2CNCC12 (stereo not shown) [Example 6, 5-(4-Fluorobenzyloxy)-6-chloro-8-methyl-1,2,3,3a,8,8a-hexahydroindeno[1,2-c]pyrrole], the EC50 is reported as less than 1 µM. Cc1ccc2c(c1)C(C)C1CNCC21 (single isomer, unassigned) [15, Enantiomer 1] showed an EC50 of less than 0.1 µM. Cc1cc2c(cc1Cl)C1CNCC1C2C (stereo not shown) [Example 23, 5-Chloro-6-methyl-8-methyl-1,2,3,3a,8,8a-hexahydroindeno[1,2-c]pyrrole] showed an EC50 of less than 1 µM. Compound COc1cc2c(cc1OC)C1CNCC1C2C (single isomer, unassigned) [36, Enantiomer 2] has an EC50 of less than 1 µM. With CC1c2cc(Cl)cc(Cl)c2C2CNCC12 (stereo not shown) [Example 28, 4,6-Dichloro-8-methyl-1,2,3,3a,8,8a-hexahydroindeno[1,2-c]pyrrole] the EC50 was less than 0.1 µM. Compound CCOc1cc2c(cc1Cl)C(C)C1CNCC21 (single isomer, unassigned) [29, Enantiomer 2] has an EC50 of less than 0.1 µM. In the case of COc1cc2c(cc1Cl)C(O)C1CNCC21 (stereo not shown) [Example 55, 5-Methoxy-6-chloro-2,3,3a,8a-tetrahydro-1H-2-aza-cyclopenta[a]inden-8-ol], the EC50 is reported as less than 10 µM. Compound Cc1ccc2c(c1)C(C)C1CNCC21 (single isomer, unassigned) [15, Enantiomer 2] has an EC50 of less than 1 µM. Work on CC1c2ccc(Cl)cc2C2CNCC12 (stereo not shown) [Example 20, 5-Chloro-8-methyl-1,2,3,3a,8,8a-hexahydroindeno[1,2-c]pyrrole] yielded an EC50 of less than 10 µM. In the case of COc1cc2c(cc1Cl)C(C)C1CNCC21 (single isomer, unassigned) [3, Enantiomer 2], the EC50 is reported as less than 0.1 µM. With COc1cc2c(cc1Cl)CC1CNCC21 (single isomer, unassigned) [37, Enantiomer 1] the EC50 was less than 0.1 µM. With CC1c2cc(Cl)c(OCc3ccccc3)cc2C2CNCC12 (stereo not shown) [Example 7, 5-Benzyloxy-6-chloro-8-methyl-1,2,3,3a,8,8a-hexahydroindeno[1,2-c]pyrrole] the EC50 was less than 10 µM. CC1c2cc(Cl)c(Cl)cc2C2CNCC12 (single isomer, unassigned) [26, Enantiomer 1] gave an EC50 of less than 1 µM. For c1ccc2c(c1)CC1CNCC21 (stereo not shown) [Example 10, 1,2,3,3a,8,8a-Hexahydroindeno[1,2-c]pyrrole], the EC50 was less than 10 µM. CC1c2ccc(O)cc2C2CNCC12 (single isomer, unassigned) [2, Enantiomer 1] showed an EC50 of less than 1 µM. In the case of Cc1cc2c(cc1Cl)C(C)C1CNCC21 (stereo not shown) [Example 21, 5-Methyl-6-chloro-8-methyl-1,2,3,3a,8,8a-hexahydroindeno[1,2-c]pyrrole], the EC50 is reported as less than 0.1 µM. With COc1ccc2c(c1)C1CNCC1C2C (single isomer, unassigned) [1, Enantiomer 2] the EC50 was less than 1 µM. Compound CC1c2cc(Cl)ccc2C2CNCC12 (stereo not shown) [Example 5, 6-Chloro-8-methyl-1,2,3,3a,8,8a-hexahydroindeno[1,2-c]pyrrole] has an EC50 of less than 0.1 µM. Work on COc1c(Cl)cc2c(c1Cl)C1CNCC1C2C (single isomer, unassigned) [38, Enantiomer 2] yielded an EC50 of less than 0.1 µM. Work on Cc1cc2c(cc1Br)C(C)C1CNCC21 (stereo not shown) [Example 22, 5-Methyl-6-bromo-8-methyl-1,2,3,3a,8,8a-hexahydroindeno[1,2-c]pyrrole] yielded an EC50 of less than 1 µM. Compound CC1c2cc(Cl)c(Cl)cc2C2CNCC12 (single isomer, unassigned) [26, Enantiomer 2] has an EC50 of less than 0.1 µM.
